What was measured:
[1] = test system: HT-1080 cells; test: Inhibition of erastin (10 μM)-induced death in HT-1080 cells (Alamar Blue); type: cell-based, human; conditions: for prevention of erastin-induced death: erastin-treated HT-1080 cells
Summary of the method: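 HT-1080 cells (1,000/well) were treated next day with 10 μM erastin plus a compound dilution series for 24 h. Alamar Blue (10% final) was then added for 6 h and fluorescence read at ex/em 530/590.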

[2] = 2,2-Diphenyl-1-picrylhydrazyl (DPPH) cell-free antioxidant assay; type: biochemical; conditions: test compound 0.05 mM, 30 minutes
Method: The stable radical DPPH (Blois, 1958) was dissolved in methanol to a final working concentration of 0.05 mM. This was prepared as follows. First, a 100× stock concentration (5 mM) was prepared by dissolving 3.9 mg DPPH in 2 mL methanol. Then, for 25 mL of 0.05 mM final working solution, 250 μL of the 5 mM solution was added to 24.75 mL of methanol. 1 mL of DPPH solution was added to a small volume (<5 μL) each test compound dissolved in DMSO. The final concentration of each test compound was 0.05 mM. Samples were inverted several times and allowed to incubate at room temperature for 30 minutes. Samples were then aliquoted to white 96-well solid-bottom dishes (Corning) and absorbance at 517 nm was recorded using a TECAN M200 plate reader. All values were normalized to background (methanol only). The experiment was repeated three times and the data was averaged.
In parallel with the above cell-based assay, a 2,2-diphenyl-1-picrylhydrazyl (DPPH) assay was used to examine the ability of each analog to scavenge free radicals in a cell-free in vitro solution—a test of intrinsic antioxidant capacity. […] Redox active analogs scavenged the DPPH radical by 60-90% within 30 minutes (FIG. 18a).

[3] = test system: HT-1080 cells; test: Acridine orange relocalization (lysosomal membrane permeabilization) in HT-1080 cells; type: cell-based, human; conditions: acridine orange re-localization
Method: 200,000 HT-1080 cells were seeded into 6-well dishes (Corning). The next day, cells were incubated with 25 ng/mL of AO for 15 minutes, then medium was removed and cells were incubated in growth medium for 15 minutes. […] Relocalization of AO from lysosomes (discrete red puncta) to the cytosol (diffuse green color) was determined using an EVOS fl digital inverted fluorescent microscope (Advanced Microscopy Group) equipped with GFP (ex/em 470/525) and RFP (ex/em 531/593) light cubes.

[4] = test system: rat organotypic hippocampal slice culture (OHSC); test: Glutamate excitotoxic injury in organotypic hippocampal slice cultures (PI uptake); type: cell-based; conditions: 5 mM L-glutamate 3 hours; Fer-1 2 μM, CPX 5 μM, MK-801 10 μM; 24 hours
Method: OHSCs were cultured as previously described (Morrison et al., 2002) with approval from Columbia University's Institutional Animal Care and Use Committee (IACUC). Briefly, Sprague Dawley rat pups (P8-P10) were rapidly decapitated, and the hippocampus placed in ice-cold Gey's balanced salt solution (Sigma). 400 μm thick sections were cut using a Mcllwain tissue chopper and immediately plated on Millicell cell culture inserts (Millipore, Billerica, Mass.) in Neurobasal (Invitrogen) media supplemented with B27 (1×, Invitrogen), GlutaMAX (1 mM, Invitrogen), and D-glucose (4.5 mg/mL, Sigma) at 37° C. and 5% CO2. After 2 days in vitro (DIV), the media was changed to medium containing serum comprised of 50% DMEM (Sigma), 25% heat-inactivated horse serum (Sigma), 25% Hank's balanced salt solution (Sigma), GlutaMAX (1 mM, Invitrogen), and D-glucose (4.5 mg/mL, Sigma). Medium was changed every 2-3 days.
After 10-14 DIV, OBSCs were exposed to an excitotoxic injury consisting of a 3 hour exposure to 5 mM L-glutamate in SFM (Morrison et al., 2002). […] After the 3 hour exposure, the cultures were placed in fresh serum free media (SFM) containing 75% DMEM, 25% Hank's balanced salt solution, GlutaMAX (1 mM), D-glucose (4.5 mg/mL) until cell death was quantified at 24 hours. […]
Quantification of cell death has been described previously (Cater et al., 2007; Morrison et al., 2002). […] Percentage cell death was expressed as the number of pixels in the ROI above a threshold in the PI fluorescent image divided by the total number of pixels in the ROI.
OHSCs were treated with a lethal excitotoxic stimulus (5 mM L-glutamate, 3 hours) that mimics the consequences of stroke and neurodegenerative disease (Morrison et al., 2002; Sundstrom et al., 2005) (FIG. 5A). […] The effects of these compound treatments on propidium iodide (PI) uptake were analyzed, as an indicator of cell death, 24 hours following the end of glutamate treatment, in 3 defined regions of the OHSCs: the dentate gyrus (DG), the CA1 and the CA3 fields of the hippocampus.

[5] = test system: BJeLR and HT-1080 cells; test: Measurement of ATP levels; type: cell-based, human; conditions: normalized to viability
Method: ATP levels were evaluated using the ApoSENSOR ATP Assay Kit (Biovision Inc., Milpitas, Calif.) according to the manufacturer's instructions. 2000 HT-1080 or BJeLR cells were seeded in 96-well white bottom plates (Falcon). Cells were treated 12 hours later with compound as above for the TEM. Prior to luminescence measurement, medium was removed and cells were lysed and incubated with ATP Monitoring Enzyme. Luminescence was measured using a Victor3 platereader equipped with an infrared emission filter every 30 seconds for 10 minutes. Typically the first reading was used for data analysis. Parallel cell culture treatments were performed in 96-well clear bottom plates and cell viability was determined using Alamar Blue. These values were used to normalize ATP levels to cell viability.

[6] = test system: 143B osteosarcoma cells; test: Erastin / RSL3 lethality in 143B ρ0 and ρ+ cells; type: cell-based, human; conditions: 24 hours
Method: Cell viability was typically assessed in 384-well format by Alamar Blue (Invitrogen) fluorescence (ex/em 530/590) measured on a Victor3 platereader (Perkin Elmer, Waltham, Mass.). In some experiments, Trypan Blue dye exclusion counting was performed using an automated cell counter (ViCell, Beckman-Coulter Inc., Brea, Calif.). Cell viability in test conditions is reported as a percentage relative to the negative control treatment.
Because two erastin targets, VDAC2 and VDAC3, reside in the mitochondria, it was hypothesized that erastin-induced death involved aberrant ROS production by the mitochondrial electron transport chain (ETC). […] Furthermore, KRAS-mutant 143B osteosarcoma cells incapable of ETC-dependent ROS formation, due to the depletion of mitochondrial DNA (mtDNA)-encoded transcripts (ρ^0 cells), were as sensitive to erastin and RSL3 as matched mtDNA-wild-type (ρ^+) cells (FIGS. 1E, 1F, and 8C-E). Thus, erastin-induced cell death in human cancer cells involves DFO-sensitive ROS accumulation and can occur in cells lacking a functional ETC. This iron-dependent death phenotype was named ferroptosis.

[7] = target: T1, system xc− (Homo sapiens, UniProt Q9UPY5); test: [14C]Cystine uptake assay in HT-1080 cells; type: cell-based; conditions: Erastin 10 μM, glutamate 50 mM, SAS 1 mM
T1 construct: endogenous in cells; host or cells: HT-1080 cells (ATCC)
T1 sequence (Q9UPY5 1-501): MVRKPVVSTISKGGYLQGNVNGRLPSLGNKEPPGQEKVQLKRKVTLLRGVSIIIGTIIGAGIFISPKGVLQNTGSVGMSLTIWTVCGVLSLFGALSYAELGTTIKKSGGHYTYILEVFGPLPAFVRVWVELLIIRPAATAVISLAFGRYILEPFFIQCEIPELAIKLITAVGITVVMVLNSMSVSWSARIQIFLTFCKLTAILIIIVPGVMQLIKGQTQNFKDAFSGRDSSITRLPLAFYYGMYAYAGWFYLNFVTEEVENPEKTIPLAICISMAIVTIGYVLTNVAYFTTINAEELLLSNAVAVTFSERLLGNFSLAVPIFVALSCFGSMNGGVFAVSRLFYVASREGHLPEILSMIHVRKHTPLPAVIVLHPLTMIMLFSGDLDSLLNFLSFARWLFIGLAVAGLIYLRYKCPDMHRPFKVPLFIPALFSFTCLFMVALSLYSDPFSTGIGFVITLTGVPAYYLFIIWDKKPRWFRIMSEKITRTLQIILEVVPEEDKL
T1 sequence (P08195 1-529 partner): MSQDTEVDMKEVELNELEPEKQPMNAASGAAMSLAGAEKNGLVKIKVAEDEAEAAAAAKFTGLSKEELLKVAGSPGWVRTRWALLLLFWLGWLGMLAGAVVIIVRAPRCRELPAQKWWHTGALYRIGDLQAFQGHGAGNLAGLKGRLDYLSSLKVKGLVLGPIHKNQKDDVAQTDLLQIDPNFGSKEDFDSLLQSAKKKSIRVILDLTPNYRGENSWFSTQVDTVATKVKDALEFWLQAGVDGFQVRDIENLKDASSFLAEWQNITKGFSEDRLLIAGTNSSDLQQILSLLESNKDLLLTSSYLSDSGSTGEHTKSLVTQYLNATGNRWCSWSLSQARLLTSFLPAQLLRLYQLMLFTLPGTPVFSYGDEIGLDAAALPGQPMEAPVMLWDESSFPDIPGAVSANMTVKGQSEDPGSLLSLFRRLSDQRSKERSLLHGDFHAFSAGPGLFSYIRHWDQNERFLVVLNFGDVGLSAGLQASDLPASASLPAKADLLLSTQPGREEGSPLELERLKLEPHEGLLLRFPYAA
Method: 200,000 HT-1080 cells/well were seeded overnight in 6-well dishes (Corning). […] At this point, in each well the buffer was replaced with 600 μL uptake buffer containing compound and 0.12 μCi (80-110 mCi/mmol) of L-[3,3′-^14C]-cystine (Perkin Elmer) and incubated for 3 minutes at 37° C. Cells were then washed three times with ice-cold uptake buffer and lysed in 500 μL 0.1 M NaOH. To this lysate was added 15 mL of scintillation fluid and radioactive counts per minute were obtained using a scintillation counter. All measurements were performed in triplicate for each condition.

[8] = test system: HT-1080 cells; test: Mitochondrial ROS (MitoSOX) in HT-1080 cells; type: cell-based, human; conditions: HT-1080, 6 hours; erastin 10 μM, rotenone 250 nM
Method: 200,000 HT-1080 cells were seeded into 6-well dishes (Corning). The next day, cells were treated with +/−rotenone +/−ferrostatin-1 for 3 hours (for MitoSOX experiments) or +/−STS +/−ferrostatin-1 for 4 hours (for 10-N-nonylacridine orange [NAO] experiments), harvested by trypsinization and analyzed as follows. For the analysis of mitochondrial ROS, cells were incubated with 5 μM MitoSOX (Molecular Probes/Invitrogen) in HBSS for 10 minutes in the dark at 37° C. […] MitoSOX data were collected in the FL2 channel and NAO data was collected in the FL1 channel. Data are from three independent biological replicates of each experiment. Data were analyzed by one-way ANOVA with Bonferroni's post-hoc test.
A minimum of 10,000 cells were analyzed per condition.

[9] = test system: SLC7A11; test: SLC7A11 mRNA levels (RT-qPCR) in HT-1080 cells; type: cell-based, human; conditions: 6 hours
Method: RNA was extracted using the Qiashredder and Qiagen RNeasy Mini kits (Qiagen) according to the manufacturer's protocol. 2 μg total RNA for each sample was used as input for each reverse transcription reaction, performed using the TaqMan RT kit (Applied Biosystems, Life Technologies Corp., Carlsbad, Calif.). Primer pairs were designed for target transcripts using Primer Express 2.0 (Applied Biosystems). Quantitative PCR reactions were performed using the Power SYBR Green PCR Master Mix (Applied Biosystems). Triplicate samples per condition were analyzed on an Applied Biosystems 7300 qPCR instrument using absolute quantification settings. Differences in mRNA levels compared to HPRT1 or ACTB internal reference control were computed between control and experimental conditions using the ΔΔCt method.

For `CCOC(=O)c1ccc(N)c(N)c1` [CA1], the EC50 ([1]; SI Table 8, read-out: EC50) was greater than 10 µM, the “prevention of erastin-induced death” value [1] was “destroyed” and the “intrinsic antioxidant capability in the DPPH assay” value [2] was “destroyed the antioxidant capability”.

With `Cc1cc(C2CCCCC2)n(O)c(=O)c1` [CPX, ciclopirox olamine, reference compound] the “prevention of erastin-induced death” value [1] was “suppressed erastin-induced death”, the “lysosomal membrane destruction in response to H2O2” value [3] was “protects from lysosomal rupture” and the “glutamate-induced cell death (PI uptake) in DG, CA1, CA3” value [4] was “attenuated significantly”.

With `OO` [Compound H2O2, hydrogen peroxide] the “intracellular ATP” value [5] was “substantial depletion of intracellular ATP”.

In the case of `COC(=O)c1ccc([C@@H]2c3[nH]c4ccccc4c3C[C@@H](C(=O)OC)N2C(=O)CCl)cc1` [RSL3], the “sensitivity of ρ0 versus ρ+ cells” value [6] is reported as “as sensitive” and the “Na+-independent uptake of [14C]cystine” value [7] is reported as “had no effect on this process”.

In the case of `C=C(C)[C@H]1Cc2c(ccc3c2O[C@@H]2COc4cc(OC)c(OC)cc4[C@@H]2C3=O)O1` [rotenone, reference compound], the “MitoSOX-sensitive mitochondrial ROS production” value [8] is reported as “enhanced MitoSOX-sensitive ROS production”.

In the case of `OCCS` [β-ME, β-mercaptoethanol, reference compound], the “prevention of erastin-induced death” value [1] is reported as “strongly inhibited cell death” and the “effect on erastin/SAS-induced SLC7A11 upregulation” value [9] is reported as “suppressed”.

Source: patent US11192849B2, “Compounds, compositions, and methods for modulating ferroptosis and treating excitotoxic disorders” (THE TRUSTEES OF COLUMBIA UNIVERSITY IN THE CITY OF NEW YORK, priority 2013, dated 2021)
